Measurements published in patent US9926281B2 (priority 2014, dated 2018).
Where two headings read alike, the source gives them in different places.

What was measured:
human TACE = human TACE (Homo sapiens (Human), UniProt P78536); details: read-out: TACE potency IC50
human ADAMTS-5 [1] = molecular target: T1, human ADAMTS-5 (Homo sapiens (Human), UniProt Q9UNA0); details: read-out: hADAMTS-5 potency IC50
Experimental: Finally, the fluorescence is read on the Envision (Perkin Elmer) after an incubation of 90 min at 37° C.

human MMP14 = human MMP14 (Homo sapiens (Human), UniProt P50281); details: read-out: hMMP-14 potency IC50
human MMP13 = human MMP13 (Homo sapiens (Human), UniProt P45452); details: read-out: hMMP-13 potency IC50
Experimental: Human MMP13 is preactivated by incubated the enzyme in the same buffer complemented with 1 mM freshly prepared p-Aminophenylmercuric acetate (AMPA) for 1 hour at 37° C.

human ADAMTS-5 [2] = molecular target: T1, human ADAMTS-5; details: read-out: hADAMTS-5 potency IC50; remark: listed apart in the source
rnADAMTS-5 (1-564-6H) = rnADAMTS-5 (1-564-6H) (Rattus norvegicus, UniProt Q6TY19); details: read-out: Rat ADAMTS-5 potency IC50

T1 sequence (Q9UNA0 262-930): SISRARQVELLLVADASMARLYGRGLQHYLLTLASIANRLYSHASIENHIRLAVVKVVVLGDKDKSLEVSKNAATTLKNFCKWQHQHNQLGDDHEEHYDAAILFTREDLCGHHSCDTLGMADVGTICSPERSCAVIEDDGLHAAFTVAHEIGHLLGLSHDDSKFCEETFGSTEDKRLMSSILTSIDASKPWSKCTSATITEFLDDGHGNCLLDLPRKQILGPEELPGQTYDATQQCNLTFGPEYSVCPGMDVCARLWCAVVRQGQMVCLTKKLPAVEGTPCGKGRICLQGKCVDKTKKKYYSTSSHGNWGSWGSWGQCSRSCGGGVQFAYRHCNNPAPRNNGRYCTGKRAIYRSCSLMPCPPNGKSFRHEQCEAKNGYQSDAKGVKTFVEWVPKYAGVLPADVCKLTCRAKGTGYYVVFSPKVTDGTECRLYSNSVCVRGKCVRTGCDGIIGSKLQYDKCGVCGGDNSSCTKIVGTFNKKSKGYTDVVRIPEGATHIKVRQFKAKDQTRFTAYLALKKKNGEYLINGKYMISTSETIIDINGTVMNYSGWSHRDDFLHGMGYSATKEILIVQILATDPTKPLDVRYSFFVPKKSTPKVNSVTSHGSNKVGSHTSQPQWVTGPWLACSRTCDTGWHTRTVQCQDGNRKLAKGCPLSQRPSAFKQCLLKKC
Chain of human TACE (P78536 whole entry, looked up, change not shown): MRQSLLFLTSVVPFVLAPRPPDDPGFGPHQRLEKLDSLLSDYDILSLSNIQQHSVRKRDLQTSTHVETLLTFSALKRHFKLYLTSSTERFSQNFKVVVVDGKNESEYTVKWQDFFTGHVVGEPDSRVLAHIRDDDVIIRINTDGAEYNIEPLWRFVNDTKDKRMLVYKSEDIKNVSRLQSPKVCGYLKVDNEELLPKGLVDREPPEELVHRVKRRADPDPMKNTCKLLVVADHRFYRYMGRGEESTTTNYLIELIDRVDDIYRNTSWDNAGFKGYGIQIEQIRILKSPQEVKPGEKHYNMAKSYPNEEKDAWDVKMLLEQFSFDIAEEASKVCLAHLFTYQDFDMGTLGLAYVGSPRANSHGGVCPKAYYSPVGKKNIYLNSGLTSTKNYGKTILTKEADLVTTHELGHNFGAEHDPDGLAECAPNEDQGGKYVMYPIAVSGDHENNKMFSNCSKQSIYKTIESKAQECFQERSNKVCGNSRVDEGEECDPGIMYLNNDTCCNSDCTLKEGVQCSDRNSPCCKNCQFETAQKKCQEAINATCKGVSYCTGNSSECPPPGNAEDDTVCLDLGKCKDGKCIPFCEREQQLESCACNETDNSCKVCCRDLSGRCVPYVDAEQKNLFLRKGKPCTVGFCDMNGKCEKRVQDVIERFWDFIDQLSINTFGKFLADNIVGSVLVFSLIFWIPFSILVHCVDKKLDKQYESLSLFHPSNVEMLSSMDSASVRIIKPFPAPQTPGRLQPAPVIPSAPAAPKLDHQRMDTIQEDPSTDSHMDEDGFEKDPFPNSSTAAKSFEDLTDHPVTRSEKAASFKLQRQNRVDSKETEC

Structure (SMILES): CC(CC1(C2CC2)NC(=O)NC1=O)C(=O)N1CCN(c2cncc(F)c2)[C@@H](C)C1 (stereo partly drawn) [compound 313, 5-cyclopropyl-5-[3-[(3S)-4-(5-fluoro-3-pyridyl)-3-methyl-piperazin-1-yl]-2-methyl-3-oxo-propyl]imidazolidine-2,4-dione]
- IC50 (human TACE): > 20 µM
- IC50 (human ADAMTS-5 [1]): 34 nM
- IC50 (human MMP14): > 20 µM

Structure (SMILES): C[C@H]1CN(C(=O)CCC2(C3CC3)NC(=O)NC2=O)CCN1c1cncc(Cl)c1 (stereo partly drawn) [compound 260, 5-[3-[(3S)-4-(5-chloro-3-pyridyl)-3-methyl-piperazin-1-yl]-3-oxo-propyl]-5-cyclopropyl-imidazolidine-2,4-dione]
- IC50 (human TACE): > 20 µM
- IC50 (human ADAMTS-5 [1]): 126 nM
- IC50 (human MMP14): > 20 µM

Structure (SMILES): C[C@H]1CN(C(=O)CC[C@@]2(C3CC3)NC(=O)NC2=O)CCN1c1cc(F)cc(-c2cn[nH]c2)c1 [compound 357, (5S)-5-cyclopropyl-5-[3-[(3S)-4-[3-fluoro-5-(1H-pyrazol-4-yl)phenyl]-3-methyl-piperazin-1-yl]-3-oxo-propyl]imidazolidine-2,4-dione]
- IC50 (human TACE): > 4 µM
- IC50 (human ADAMTS-5 [1]): 25 nM
- IC50 (human MMP14): > 20 µM

Structure (SMILES): CC(CC1(C2CC2)NC(=O)NC1=O)C(=O)N1CCN(c2cccnc2)[C@@H](C)C1 (stereo partly drawn) [compound 351, 5-cyclopropyl-5-[2-methyl-3-[(3S)-3-methyl-4-(3-pyridyl)piperazin-1-yl]-3-oxo-propyl]imidazolidine-2,4-dione]
- IC50 (human TACE): > 20 µM
- IC50 (human ADAMTS-5 [1]): 35 nM
- IC50 (human MMP14): 3.84 µM

Structure (SMILES): C[C@@H](C[C@@]1(C)NC(=O)NC1=O)C(=O)N1CCN(c2cc(F)cc(-c3cn[nH]c3)c2)[C@@H](C)C1 [compound 375, 5-[3-[(3S)-4-[3-fluoro-5-(1H-pyrazol-4-yl)phenyl]-3-methyl-piperazin-1-yl]-2-methyl-3-oxo-propyl]-5-methyl-imidazolidine-2,4-dione]
- IC50 (human TACE): 1.13 µM
- IC50 (human ADAMTS-5 [1]): 30 nM
- IC50 (human MMP14): > 20 µM

Structure (SMILES): C[C@H]1CN(C(=O)CCC2(c3cn(C)cn3)NC(=O)NC2=O)CCN1c1cc(F)cc(Cl)c1 (stereo partly drawn) [compound 389, 5-[3-[(3S)-4-(3-chloro-5-fluoro-phenyl)-3-methyl-piperazin-1-yl]-3-oxo-propyl]-5-(1-methylimidazol-4-yl)imidazolidine-2,4-dione]
- IC50 (human TACE): > 4 µM
- IC50 (human ADAMTS-5 [1]): 40 nM
- IC50 (human MMP14): > 20 µM

Structure (SMILES): C[C@H]1CN(C(=O)CCC2(c3cnccn3)NC(=O)NC2=O)CCN1c1cccc(F)c1 (stereo partly drawn) [compound 350, 5-[3-[(3S)-4-(3-fluorophenyl)-3-methyl-piperazin-1-yl]-3-oxo-propyl]-5-pyrazin-2-yl-imidazolidine-2,4-dione]
- IC50 (human TACE): > 20 µM
- IC50 (human ADAMTS-5 [1]): 62 nM
- IC50 (human MMP14): 1.31 µM

Structure (SMILES): C[C@H]1CN(C(=O)CCC2(C3CC3)NC(=O)NC2=O)CCN1c1cccnc1 (stereo partly drawn) [compound 259, 5-cyclopropyl-5-[3-[(3S)-3-methyl-4-(3-pyridyl)piperazin-1-yl]-3-oxo-propyl]imidazolidine-2,4-dione]
- IC50 (human TACE): > 20 µM
- IC50 (human ADAMTS-5 [1]): 224 nM
- IC50 (human MMP14): > 20 µM

Structure (SMILES): C[C@H]1CN(C(=O)CCC2(C3CC3)NC(=O)NC2=O)CCN1c1cccc(Br)c1 (stereo partly drawn) [compound 270, 5-[3-[(3S)-4-(3-bromophenyl)-3-methyl-piperazin-1-yl]-3-oxo-propyl]-5-cyclopropyl-imidazolidine-2,4-dione]
- IC50 (human TACE): > 4 µM
- IC50 (human ADAMTS-5 [1]): 76 nM
- IC50 (human MMP14): > 4 µM

Structure (SMILES): C[C@H]1CN(C(=O)CCC2(c3cccnc3)NC(=O)NC2=O)CCN1c1cc(F)cc(F)c1 (stereo partly drawn) [compound 320, 5-[3-[(3S)-4-(3,5-difluorophenyl)-3-methyl-piperazin-1-yl]-3-oxo-propyl]-5-(3-pyridyl)imidazolidine-2,4-dione]
- IC50 (human TACE): > 4 µM
- IC50 (human ADAMTS-5 [1]): 48 nM
- IC50 (human MMP14): > 20 µM

Structure (SMILES): COCC1(CC(C)C(=O)N2CCN(c3cc(Cl)cc(Cl)c3C)[C@@H](C)C2)NC(=O)NC1=O (stereo partly drawn) [compound 227, 5-[3-[(3S)-4-(3,5-dichloro-2-methyl-phenyl)-3-methyl-piperazin-1-yl]-2-methyl-3-oxo-propyl]-5-(methoxymethyl)imidazolidine-2,4-dione]
- IC50 (human MMP14): > 20 µM

Structure (SMILES): C[C@H]1CN(C(=O)CCC2(c3cccnc3)NC(=O)NC2=O)CCN1c1cccc(F)c1 (stereo partly drawn) [compound 319, 5-[3-[(3S)-4-(3-fluorophenyl)-3-methyl-piperazin-1-yl]-3-oxo-propyl]-5-(3-pyridyl)imidazolidine-2,4-dione]
- IC50 (human TACE): > 4 µM
- IC50 (human ADAMTS-5 [1]): 94 nM
- IC50 (human MMP14): > 4 µM

Structure (SMILES): Cc1nc(C2(CCC(=O)N3CCN(c4cc(F)cc(F)c4)[C@@H](C)C3)NC(=O)NC2=O)c(C)o1 (stereo partly drawn) [compound 396, 5-[3-[(3S)-4-(3,5-difluorophenyl)-3-methyl-piperazin-1-yl]-3-oxo-propyl]-5-(2,5-dimethyloxazol-4-yl)imidazolidine-2,4-dione]
- IC50 (human TACE): > 4 µM
- IC50 (human ADAMTS-5 [1]): 53 nM
- IC50 (human MMP14): 0.007 µM

Structure (SMILES): C[C@H]1CN(C(=O)CCC2(c3cccnc3)NC(=O)NC2=O)CCN1c1ccc(F)c(Cl)c1 (stereo partly drawn) [compound 316, 5-[3-[(3S)-4-(3-chloro-4-fluoro-phenyl)-3-methyl-piperazin-1-yl]-3-oxo-propyl]-5-(3-pyridyl)imidazolidine-2,4-dione]
- IC50 (human TACE): > 4 µM
- IC50 (human ADAMTS-5 [1]): 61 nM
- IC50 (human MMP14): > 20 µM

Structure (SMILES): Cc1cccc(C2(CCC(=O)N3CCN(c4cccc(F)c4)[C@@H](C)C3)NC(=O)NC2=O)n1 (stereo partly drawn) [compound 308, 5-[3-[(3S)-4-(3-fluorophenyl)-3-methyl-piperazin-1-yl]-3-oxo-propyl]-5-(6-methyl-2-pyridyl)imidazolidine-2,4-dione]
- IC50 (human TACE): > 4 µM
- IC50 (human ADAMTS-5 [1]): 59 nM
- IC50 (human MMP14): > 20 µM

Structure (SMILES): C[C@H]1CN(C(=O)CCC2(c3ccncc3)NC(=O)NC2=O)CCN1c1ccc(F)c(Cl)c1 (stereo partly drawn) [compound 288, 5-[3-[(3S)-4-(3-chloro-4-fluoro-phenyl)-3-methyl-piperazin-1-yl]-3-oxo-propyl]-5-(4-pyridyl)imidazolidine-2,4-dione]
- IC50 (human TACE): > 4 µM
- IC50 (human ADAMTS-5 [1]): 72 nM
- IC50 (human MMP14): > 4 µM

Structure (SMILES): CC1(CCC(=O)N2CCN(c3cncc(Cl)c3)CC2)NC(=O)NC1=O (stereo not shown) [compound 85, 5-[3-[4-(5-chloro-3-pyridyl)piperazin-1-yl]-3-oxo-propyl]-5-methyl-imidazolidine-2,4-dione]
- IC50 (human MMP13): > 20 µM
- IC50 (human TACE): > 4 µM
- IC50 (human ADAMTS-5 [2]): 1270 nM
- IC50 (rnADAMTS-5 (1-564-6H)): 1110 nM

Structure (SMILES): O=C1NC(=O)C(CCC(=O)N2CCN(c3cc(Cl)cc(Cl)c3)CC2)(c2cccnc2)N1 (stereo not shown) [compound 111, 5-[3-[4-(3,5-dichlorophenyl)piperazin-1-yl]-3-oxo-propyl]-5-(3-pyridyl)imidazolidine-2,4-dione]
- IC50 (human MMP13): > 20 µM
- IC50 (human TACE): 0.963 µM
- IC50 (human ADAMTS-5 [2]): 42 nM
- IC50 (rnADAMTS-5 (1-564-6H)): 46 nM

Structure (SMILES): O=C1NC(=O)C(CCC(=O)N2CCN(c3ccc(F)c(F)c3)CC2)(C2CC2)N1 (stereo not shown) [compound 113, 5-cyclopropyl-5-[3-[4-(3,4-difluorophenyl)piperazin-1-yl]-3-oxo-propyl]imidazolidine-2,4-dione]
- IC50 (human MMP13): 3.62 µM
- IC50 (human TACE): > 20 µM
- IC50 (human ADAMTS-5 [2]): 104 nM
- IC50 (rnADAMTS-5 (1-564-6H)): 91 nM

Structure (SMILES): CC(C)(C)C1(CCC(=O)N2CCN(c3cccc(Cl)c3)CC2)NC(=O)NC1=O (stereo not shown) [compound 107, 5-tert-butyl-5-[3-[4-(3-chlorophenyl)piperazin-1-yl]-3-oxo-propyl]imidazolidine-2,4-dione]
- IC50 (human MMP13): > 20 µM
- IC50 (human TACE): > 4 µM
- IC50 (human ADAMTS-5 [2]): 172 nM
- IC50 (rnADAMTS-5 (1-564-6H)): 147 nM

Structure (SMILES): O=C1NC(=O)C(CCC(=O)N2CCN(c3ccc(F)c(Cl)c3)CC2)(c2cccnc2)N1 (stereo not shown) [compound 91, 5-[3-[4-(3-chloro-4-fluoro-phenyl)piperazin-1-yl]-3-oxo-propyl]-5-(3-pyridyl)imidazolidine-2,4-dione]
- IC50 (human MMP13): 1.68 µM
- IC50 (human TACE): > 4 µM
- IC50 (human ADAMTS-5 [2]): 95 nM
- IC50 (rnADAMTS-5 (1-564-6H)): 69 nM

Structure (SMILES): CC(CC1(C2CC2)NC(=O)NC1=O)C(=O)N1CCN(c2cccc(Cl)c2)CC1 (stereo not shown) [compound 121, 5-[3-[4-(3-chlorophenyl)piperazin-1-yl]-2-methyl-3-oxo-propyl]-5-cyclopropyl-imidazolidine-2,4-dione]
- IC50 (human MMP13): 0.0706 µM
- IC50 (human TACE): 1.1 µM
- IC50 (human ADAMTS-5 [1]): 15 nM
- IC50 (human ADAMTS-5 [2]): 15 nM
- IC50 (rnADAMTS-5 (1-564-6H)): 24 nM

Structure (SMILES): CN(C)CCOc1ccc(C2(CCC(=O)N3CCN(c4cccc(Cl)c4)CC3)NC(=O)NC2=O)cc1 (stereo not shown) [compound 80, 5-[3-[4-(3-chlorophenyl)piperazin-1-yl]-3-oxo-propyl]-5-[4-(2-dimethylaminoethyloxy)phenyl]imidazolidine-2,4-dione]
- IC50 (human MMP13): 3.79 µM
- IC50 (human TACE): > 20 µM
- IC50 (human ADAMTS-5 [2]): 257 nM
- IC50 (rnADAMTS-5 (1-564-6H)): 429 nM

Structure (SMILES): Cc1cc(F)c(F)cc1N1CCN(C(=O)CCC2(C)NC(=O)NC2=O)CC1 (stereo not shown) [compound 94, 5-[3-[4-(4,5-difluoro-2-methyl-phenyl)piperazin-1-yl]-3-oxo-propyl]-5-methyl-imidazolidine-2,4-dione]
- IC50 (human MMP13): > 20 µM
- IC50 (human TACE): > 4 µM
- IC50 (human ADAMTS-5 [2]): 2130 nM
- IC50 (rnADAMTS-5 (1-564-6H)): 3020 nM

Structure (SMILES): O=C1NC(=O)C(CCC(=O)N2CCN(c3ccc(F)c(Cl)c3)CC2)(c2ccccn2)N1 (stereo not shown) [compound 96, 5-[3-[4-(3-chloro-4-fluoro-phenyl)piperazin-1-yl]-3-oxo-propyl]-5-(2-pyridyl)imidazolidine-2,4-dione]
- IC50 (human MMP13): 1.06 µM
- IC50 (human TACE): 3.59 µM
- IC50 (human ADAMTS-5 [2]): 49 nM
- IC50 (rnADAMTS-5 (1-564-6H)): 57 nM

Structure (SMILES): Cc1ccccc1N1CCN(C(=O)CCC2(c3cccnc3)NC(=O)NC2=O)CC1 (stereo not shown) [compound 64, 5-[3-[4-(o-tolyl)piperazin-1-yl]-3-oxo-propyl]-5-(3-pyridyl)imidazolidine-2,4-dine]
- IC50 (human MMP13): > 20 µM
- IC50 (human TACE): 3.14 µM
- IC50 (human ADAMTS-5 [2]): 125 nM
- IC50 (rnADAMTS-5 (1-564-6H)): 165 nM

Structure (SMILES): O=C1NC(=O)C(CCC(=O)N2CCN(c3ccccc3)CC2)(C2CC2)N1 (stereo not shown) [compound 138, 5-cyclopropyl-5-[3-oxo-3-(4-phenylpiperazin-1-yl)propyl]imidazolidine-2,4-dione]
- IC50 (human MMP13): > 4 µM
- IC50 (human TACE): > 20 µM
- IC50 (human ADAMTS-5 [2]): 101 nM
- IC50 (rnADAMTS-5 (1-564-6H)): 107 nM
